Here are results for 25 molecules from US11780826B2 (Amgen Inc., priority 2017, dated 2023).

In the assay the test system is Bovine cardiac myofibrils. As to the kind of experiment: In vitro model of dose-dependent myofibril ATPase modulation (AC1.4, pyruvate kinase/lactate dehydrogenase-coupled ATPase assay at pCa25). It counts as biochemical. Conditions: concentration at which ATPase activity was 1.4-fold higher than the bottom of the dose curve, mean of a minimum of two independent tests. The procedure, abridged: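 Absorbance at 340 nm tracked ATP hydrolysis through pyruvate kinase/lactate dehydrogenase coupling (0.5 mM NADH, 1.5 mM PEP). Myofibrils from detergent-homogenized bovine heart, 1 mM ATP, pH 6.80, EGTA/CaCl2 buffering. Dose-response curves fitted with a four-parameter Hill equation.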
Consider `CS(=O)(=O)N1CC(c2cccc(C(=O)N3CCC[C@@H]3C(=O)N[C@@H](c3ccc(C(F)(F)F)cc3F)C3CC3)c2)C1` [Example 704], for which the AC1.4 was determined as 5.725 µM.

For `N#CC1CN(S(=O)(=O)N2CCC[C@H](C(=O)N3CCC[C@@H]3C(=O)NC(c3cc(F)ccc3F)C(F)F)C2)C1` (stereo partly drawn) [Example 524, (2R)-1-((S)-1-((3-cyanoazetidin-1-yl)sulfonyl)piperidine-3-carbonyl)-N-(1-(2,5-difluorophenyl)-2,2-difluoroethyl)pyrrolidine-2-carboxamide], the AC1.4 amounted to 2.583 µM.

In turn, `CC(C)Nc1ccc(S(C)(=O)=O)cc1C(=O)N1CCC[C@@H]1C(=O)N[C@@H](c1ccc(C(F)(F)F)cc1F)C1CC1` [Example 81, N-((R)-cyclopropyl(2-fluoro-4-(trifluoromethyl)phenyl)methyl)-1-(5-(methylsulfonyl)-2-(2-propanylamino)benzoyl)-D-prolinamide] returned an AC1.4 of 0.1048 µM.

Molecule `CC(C)c1cc(C(=O)N2[C@@H](C(=O)N[C@@H](c3cc(F)c(Cl)cc3F)C3COC3)C[C@H]3C[C@H]32)ccn1` [Example 504, (1R,3R,5R)-N-((R)-(4-chloro-2,5-difluorophenyl)(3-oxetanyl)methyl)-2-((2-(2-propanyl)-4-pyridinyl)carbonyl)-2-azabicyclo[3.1.0]hexane-3-carboxamide] returned an AC1.4 of 2.3635 µM.

Molecule `Cc1cc(C(=O)N2[C@@H](C(=O)N[C@@H](c3ccc(C(F)(F)F)cc3F)C3COC3)C[C@H]3C[C@H]32)c(NCCO)cn1` [Example 541, (1R,3R,5R)-N-((R)-(2-fluoro-4-(trifluoromethyl)phenyl)(3-oxetanyl)methyl)-2-((5-((2-hydroxyethyl)amino)-2-methyl-4-pyridinyl)carbonyl)-2-azabicyclo[3.1.0]hexane-3-carboxamide] yielded an AC1.4 of 2.789 µM.

Take `N#CC1CN(S(=O)(=O)c2cccc(C(=O)N3CCC[C@@H]3C(=O)NC3CC(C(F)(F)F)C3)c2)C1` (stereo partly drawn) [Example 759, 1-((3-((3-cyano-1-azetidinyl)sulfonyl)phenyl)carbonyl)-N-(cis-3-(trifluoromethyl)cyclobutyl)-D-prolinamide,1-((3-((3-cyano-1-azetidinyl)sulfonyl)phenyl)carbonyl)-N-(trans-3-(trifluoromethyl)cyclobutyl)-D-prolinamide]: the AC1.4 is 7.6347 µM.

Regarding `CS(=O)(=O)c1cccc(C(=O)N2C[C@@H](F)C[C@@H]2C(=O)N[C@@H](c2cc(F)c(C(F)(F)F)cc2F)C2CC2)c1` [Example 173, (4S)-N-((R)-cyclopropyl(2,5-difluoro-4-(trifluoromethyl)phenyl)methyl)-4-fluoro-1-(3-(methylsulfonyl)benzoyl)-D-prolinamide], the AC1.4 amounted to 0.3001 µM.

For `NS(=O)(=O)c1cccc(C(=O)N2CCCC[C@@H]2C(=O)N[C@@H](c2ccc(C(F)(F)F)cc2F)C2CC2)c1` [Example 359, (2R)-N-((R)-cyclopropyl(2-fluoro-4-(trifluoromethyl)phenyl)methyl)-1-(3-sulfamoylbenzoyl)-2-piperidinecarboxamide], the AC1.4 was 1.1055 µM.

`O=C(O[C@@H]1CC(C(=O)N[C@@H](c2cc(F)c(Cl)cc2F)C2COC2)N(C(=O)c2ccnc(C(F)F)c2)C1)c1ccnc(C(F)F)c1` (stereo partly drawn) [Example 476, (3R,5R)-5-(((R)-(4-chloro-2,5-difluorophenyl)(3-oxetanyl)methyl)carbamoyl)-1-((2-(difluoromethyl)-4-pyridinyl)carbonyl)-3-pyrrolidinyl2-(difluoromethyl)-4-pyridinecarboxylate] yielded an AC1.4 of 2.071 µM.

In turn, `O=C(NCc1ccc(C(F)(F)F)cc1)[C@H]1COCCN1C(=O)c1cccc(S(=O)(=O)N2CC3(CC3)C2)c1` [Example 537, (R)-4-(3-((5-azaspiro[2.3]hexan-5-yl)sulfonyl)benzoyl)-N-(4-(trifluoromethyl)benzyl)morpholine-3-carboxamide] returned an AC1.4 of 2.7025 µM.

Molecule `CCNc1ccc(C)cc1C(=O)N1[C@@H](C(=O)N[C@@H](c2ccc(C(F)(F)F)cc2F)C2COC2)C[C@H]2C[C@H]21` [Example 23, (1R,3R,5R)-2-(2-(ethylamino)-5-methylbenzoyl)-N-((R)-(2-fluoro-4-(trifluoromethyl)phenyl)(3-oxetanyl)methyl)-2-azabicyclo[3.1.0]hexane-3-carboxamide] yielded an AC1.4 of 0.0287 µM.

In the case of `CC1(O)CC([C@@H](NC(=O)[C@H]2C[C@H]3C[C@H]3N2C(=O)c2cccc(S(C)(=O)=O)c2)c2cc(F)c(C(F)(F)F)cc2F)C1` (stereo partly drawn) [Example 829, (1R,3R,5R)-N-((R)-(2,5-difluoro-4-(trifluoromethyl)phenyl)(3-hydroxy-3-methylcyclobutyl)methyl)-2-(3-(methylsulfonyl)benzoyl)-2-azabicyclo[3.1.0]hexane-3-carboxamide], the AC1.4 stood at 1.702 µM.

In the case of `O=C(NCc1ccc(C(F)(F)F)cc1)[C@H]1CCCN1C(=O)[C@H]1CCCN(S(=O)(=O)N2CC(C(F)(F)F)C2)C1` [Example 380, 1-(((3S)-1-((3-(trifluoromethyl)-1-azetidinyl)sulfonyl)-3-piperidinyl)carbonyl)-N-(4-(trifluoromethyl)benzyl)-D-prolinamide], the AC1.4 amounted to 1.257 µM.

Molecule `N#CC1CN(S(=O)(=O)N2CCC[C@H](C(=O)N3CCC[C@@H]3C(=O)NC3CCOc4ccccc43)C2)C1` (stereo partly drawn) [Example 502, (2R)-N-(chroman-4-yl)-1-((S)-1-((3-cyanoazetidin-l-yl)sulfonyl)piperidine-3-carbonyl)pyrrolidine-2-carboxamide] came in with an AC1.4 of 2.3515 µM.

The molecule `CS(=O)(=O)c1ccc(NCCO)c(C(=O)N2[C@@H](C(=O)N[C@@H](c3ccc(C(F)(F)F)cc3F)C3CC3)C[C@H]3C[C@H]32)c1` [Example 118, (1R,3R,5R)-N-((R)-cyclopropyl(2-fluoro-4-(trifluoromethyl)phenyl)methyl)-2-(2-((2-hydroxyethyl)amino)-5-(methylsulfonyl)benzoyl)-2-azabicyclo[3.1.0]hexane-3-carboxamide] showed an AC1.4 of 0.1795 µM.

With `Cc1cc(Cl)cc(CNC(=O)[C@H]2CCCN2C(=O)[C@H]2CCCN(S(=O)(=O)N3CC(C#N)C3)C2)c1` [Example 443, N-(3-chloro-5-methylbenzyl)-1-(((3S)-1-((3-cyano-1-azetidinyl)sulfonyl)-3-piperidinyl)carbonyl)-D-prolinamide], the AC1.4 came out at 1.7885 µM.

Turning to `N#CC1CN(S(=O)(=O)c2cccc(C(=O)N3CCC[C@@H]3C(=O)NCc3ccc(C(F)(F)F)nc3)c2)C1` [Example 131, 1-((3-((3-cyano-1-azetidinyl)sulfonyl)phenyl)carbonyl)-N-((6-(trifluoromethyl)-3-pyridinyl)methyl)-D-prolinamide], the AC1.4 was 0.2158 µM.

Molecule `Cc1cc(C(=O)N2[C@@H](C(=O)N[C@@H](c3ccc(C(F)(F)F)cc3F)C3CC3)C[C@H]3C[C@H]32)c(NCCO)cn1` [Example 545, (1R,3R,5R)-N-((R)-cyclopropyl(2-fluoro-4-(trifluoromethyl)phenyl)methyl)-2-((5-((2-hydroxyethyl)amino)-2-methyl-4-pyridinyl)carbonyl)-2-azabicyclo[3.1.0]hexane-3-carboxamide] returned an AC1.4 of 2.818 µM.

`N#CC1CN(S(=O)(=O)c2cccc(C(=O)N3CCC[C@@H]3C(=O)N[C@H](CC3CC3)c3ccc(C(F)(F)F)cc3)c2)C1` [Example 1, 1-(3-((3-cyano-1-azetidinyl)sulfonyl)benzoyl)-N-((1R)-2-cyclopropyl-1-(4-(trifluoromethyl)phenyl)ethyl)-D-prolinamide] showed an AC1.4 of 0.01405 µM.

For the molecule `C[C@@H](NC(=O)[C@H]1CCCN1C(=O)[C@@H]1CN(S(=O)(=O)N2CC(C#N)C2)CCN1)c1ccc(C(F)(F)F)cc1F` [Example 144, 1-(((2S)-4-((3-cyano-1-azetidinyl)sulfonyl)-2-piperazinyl)carbonyl)-N-((1R)-1-(2-fluoro-4-(trifluoromethyl)phenyl)ethyl)-D-prolinamide], the AC1.4 amounted to 0.2462 µM.

With `O=C(N[C@@H](c1cc(F)c(Cl)cc1F)C1CC1)[C@H]1C[C@H]2C[C@H]2N1C(=O)c1cncc(S(=O)(=O)C2CC2)c1` [Example 163, (1R,3R,5R)-N-((R)-(4-chloro-2,5-difluorophenyl)(cyclopropyl)methyl)-2-((5-(cyclopropylsulfonyl)-3-pyridinyl)carbonyl)-2-azabicyclo[3.1.0]hexane-3-carboxamide], the AC1.4 stood at 0.2773 µM.

Consider `N#CC1CN(S(=O)(=O)N2CCC(F)=C(C(=O)N3CCC[C@@H]3C(=O)NCc3ccc(C(F)(F)F)cc3)C2)C1` [Example 168, 1-((1-((3-cyano-1-azetidinyl)sulfonyl)-4-fluoro-l,2,5,6-tetrahydro-3-pyridinyl)carbonyl)-N-(4-(trifluoromethyl)benzyl)-D-prolinamide], for which the AC1.4 was 0.2875 µM.

As for `N#CC1CN(S(=O)(=O)N2CCC[C@H](C(=O)N3CCC[C@@H]3C(=O)NCc3ccc(C(F)(F)F)cc3Cl)C2)C1` [Example 63, N-(2-chloro-4-(trifluoromethyl)benzyl)-1-(((3S)-1-((3-cyano-1-azetidinyl)sulfonyl)-3-piperidinyl)carbonyl)-D-prolinamide], the AC1.4 amounted to 0.07385 µM.

`N#CC1CN(S(=O)(=O)N2CCC[C@H](C(=O)N3CCC[C@@H]3C(=O)NCc3cc(F)ccc3F)C2)C1` [Example 394, 1-(((3S)-1-((3-cyano-1-azetidinyl)sulfonyl)-3-piperidinyl)carbonyl)-N-(2,5-difluorobenzyl)-D-prolinamide]: the AC1.4 is 1.3725 µM.

For the molecule `COc1ccc(F)cc1CNC(=O)[C@H]1CCCN1C(=O)[C@H]1CCCN(S(=O)(=O)N2CC(C#N)C2)C1` [Example 700, (((3S)-1-((3-cyano-1-azetidinyl)sulfonyl)-3-piperidinyl)carbonyl)-N-(5-fluoro-2-methoxybenzyl)-D-prolinamide], the AC1.4 was 5.588 µM.
